# Test results published in US20240293430A1, “WITHAFERIN A AND IMMUNE CHECKPOINT BLOCKER COMBINATION THERAPIES” (University of South Florida, priority 2023, published 2024).
# What was measured:
# LLC flank tumors = assay: LLC syngeneic mouse model, tumor growth; assay type: in vivo, C57BL/6 mice; conditions: i.p. every other day, five treatments; WFA 5 mg/kg, α-PD-L1 200 μg/mouse
# Method: FIGS. 5A-5G depict that WFA sensitizes flank tumors to α-PD-L1 therapy and targets immunosuppressive MDSCs and T-regs. (FIG. 5A) Establishment of LLC flank tumors and treatment schedule. (FIG. 5B) Tumor volume measurement in mm^3 and tumor weight at the endpoint of the experiment. (FIG. 5C) Change in the levels of ecto-CRT in tumors was measured using flow cytometry. (FIGS. 5D-5G) Flow cytometry was used to determine the change in immune cell infiltration in collected tumors. […] Moreover, WFA reduced the immunosuppressive T regs (FIG. 5F) and CD11b+Gr1+MDSC (FIG. 5G) populations. The means of two independent experiments ±SEM are shown, and the statistical significance was calculated using one-way ANOVA and a Fisher LSD post hoc test where * and #represent p<0.05 and ** and ##represent p<0.01. * Symbols refer to the difference between the vehicle control and WFA, while #refers to comparisons between the vehicle control and WFA+α-PD-L1 combination.
# C57BL/6 mice were purchased from the Jackson Laboratory (Bar Harbor, ME, USA) and acclimated for a week. To establish the LLC syngeneic tumors, C57BL/6 mice were injected with a half million cells on the right flank and monitored until tumors were first palpable (2-3 mm diameter). […] Tumor volumes (mm^3) were calculated using the equation (length^2 x width/2), where the length is defined as the bigger tumor dimension. […]
# [1] = tested on: immunosuppressive MDSC population; conditions: mouse, in vivo; cited from earlier work
compound,measurement,setting,value
"CC1=C(CO)C(=O)O[C@@H]([C@@H](C)[C@H]2CC[C@H]3[C@@H]4C[C@H]5O[C@]56[C@@H](O)C=CC(=O)[C@]6(C)[C@H]4CC[C@]23C)C1 [WFA, Withaferin A]",tumor size / tumor growth,LLC flank tumors,non-significant reduction
same,MDSC tumor infiltration and immunosuppressive function,[1],reducing
